Source: patent US11286236B2, “Compound, agent and composition for the suppression of cancer growth” (Vector Vitale IP LLC, priority 2018, dated 2022)

Assays:
Assay type in all cases: cell-based
Mouse Bone Marrow Cells = experiment: Cytotoxic/cytostatic effects on mouse bone marrow cells (MTT assay)
Experimental: In Vitro Assessment of Cytotoxic/Cytostatic Effects of Experimental Compound ^85Rbe-E2 on Mouse Bone Marrow Cells
(§1) Proliferative and metabolic activity of cells was determined by the colorimetric method.
(§2) The metabolic activity of the cells (i.e., the number of living cells) was assessed by MTT staining.
(§3) 24 hours after the last reagent, the cells were seeded at a concentration of 1×10^4 cells/well in wells of a 96-well plate in complete DMEM nutrient medium with 10% FBS and 40 μg/ml gentamicin. The cells were cultured in a humidified atmosphere at 5% CO2 and 37° C. for 24 hours. After 24 hours, various doses of experimental substances were added to the respective wells. The cells were incubated at 37° C. and 5% CO2 for an additional 72 hours.
(§4) Upon completion of the incubation with the preparations, the proliferative and metabolic activity of the cells in the experiment was evaluated by the colorimetric method by staining MTT cells:
(§5) 10 μl of the MTT solution (5 mg/ml of the dye in phosphate-buffered saline) was added to each well of the plate; the plate was incubated in a CO2 incubator at 37° C. for 3 hours. After that, the medium was removed from the wells, and the formed tetraformazan crystals were dissolved in 100 μl of dimethylsulfoxide.
(§6) When MTT was used, the results were evaluated using a multi-well spectrophotometer at an excitation wavelength of 540 nm. The percentage of viable cells was calculated by the formula: IR=(A540(experiment)/A540(control))×100%.

[1] = tested on: Mouse melanoma cells (MM-4 cell line); experiment: Cytotoxic effect on melanoma cells, single agents (crystal violet)
Experimental: Materials and Methods: Mouse melanoma cells (MM-4 cell line) were seeded into 96-well plates (TPP, Italy) in DMEM (High Glucose w/L-Glutamine w/o Sodium Pyruvate; Biowest, France) supplemented with 10% newborn calf serum (Biowest, France) and […] gentamicin (Sigma, USA) at a seeding density of 5×10^4 cells/ml. The cells were then cultured in an incubator with a humidified atmosphere of 5% CO2 in air at 37° C. 24 hours after the cells were seeded, a compound according to the invention that comprises ^85Rb-enriched rubidium salt of N-benzoyl-N′-(4-toluenesulfonyl)-o-phenylenediamine of formula I was added into the appropriate wells. ^85Rbe-E2 was used at the following doses: 2.0 μg/ml, 1.0 μg/ml, 0.5 μg/ml (each is the final concentration of ^85Rbe after addition to the well). The cytotoxic effect was determined by counting the number of live cells observed after treatment, expressed as a percentage of the number of live cells observed/counted in the control (cells seed in the well and not treated). Control cells were not treated. For each concentration, the experiment was carried out twice. The effects of the drugs were evaluated visually, which allowed us to examine the morphological pattern of the cytotoxic action of the drugs, and by staining the cells with crystal violet, followed by OD measurement at an excitation wavelength of 540 nm using a MultiScan spectrophotometer. For comparison, a parallel experiment was carried out with the use of a known antitumor drug cisplatin and a compound of rubidium salt of N-benzoyl-N′-(4-toluenesulfonyl)-o-phenylenediamine of formula I which comprised a naturally-abundant mixture of isotopes of rubidium instead of being enriched for the ^85Rb isotope.

Normal Human Fibroblasts = experiment: Metabolic activity of normal human fibroblasts (MTT assay)
Experimental: In Vitro Assessment of the Effects of Experimental Compound ^85Rbe-E2 on metabolic Activity of Normal Human Fibroblasts (MTT Assay)
In Vitro Assessment of the Effects of E2+^85Rbe on Metabolic Activity of Normal Human Fibroblasts (MTT Assay)
as §1, §2, §3, §4, §5, §6

[2] = tested on: human Keratinocytes (HaCaT line); experiment: Metabolic activity of human keratinocytes (HaCaT line)
Experimental: In Vitro Effects of Experimental Compound ^85Rbe-E2 on metabolic activity of human Keratinocytes
as §1, §2, §3, §4, §5, §6

Cc1ccc(S(=O)(=O)[N-]c2ccccc2NC(=O)c2ccccc2)cc1.[Rb+] [E2 + Rb, rubidium salt of N-benzoyl-N′-(4-toluenesulfonyl)-o-phenylenediamine]
Metabolic activity of cells, % (Mouse Bone Marrow Cells; 1.25 μg/ml): 111.2 ± 6.6%
Metabolic activity of cells, % (Mouse Bone Marrow Cells; 2.5 μg/ml): 106.8 ± 6%
Metabolic activity of cells, % (Mouse Bone Marrow Cells; 5 μg/ml): 106.7 ± 11.8%
Metabolic activity of cells, % (Mouse Bone Marrow Cells; 10 μg/ml): 99.3 ± 4.7%
Metabolic activity of cells, % (Mouse Bone Marrow Cells; 20 μg/ml): 88 ± 3.5%
Metabolic activity of cells, % (Mouse Bone Marrow Cells; 38 μg/ml): 96.2 ± 4.4%
Metabolic activity of cells, % (Mouse Bone Marrow Cells; 75 μg/ml): 105.2 ± 7.8%
Metabolic activity of cells, % (Mouse Bone Marrow Cells; 150 μg/ml): 107.1 ± 3.8%
Number of cells after their treatment with the drug, % ([1]; 0.5 μg/ml of rubidium (85Rbe or Rb)): 90.6 ± 0.9%
Number of cells after their treatment with the drug, % ([1]; 1.0 μg/ml of rubidium (85Rbe or Rb)): 84.9 ± 0.9%
Number of cells after their treatment with the drug, % ([1]; 2.0 μg/ml of rubidium (85Rbe or Rb)): 62.1 ± 0.8%
Activity against tumor cells compared with the 85Rb-enriched salt ([1]; 0.5-2.0 μg rubidium/ml): significantly lower activity against tumor cells
Metabolic activity of cells, % (Normal Human Fibroblasts; 2.5 μg/ml): 128.2 ± 8.3%
Metabolic activity of cells, % (Normal Human Fibroblasts; 5 μg/ml): 103.4 ± 9.3%
Metabolic activity of cells, % (Normal Human Fibroblasts; 10 μg/ml): 104.6 ± 14.2%
Metabolic activity of cells, % (Normal Human Fibroblasts; 20 μg/ml): 96.8 ± 9.8%
Metabolic activity of cells, % (Normal Human Fibroblasts; 38 μg/ml): 98.8 ± 7.1%
Metabolic activity of cells, % (Normal Human Fibroblasts; 75 μg/ml): 97.7 ± 7.5%
Metabolic activity of cells, % (Normal Human Fibroblasts; 150 μg/ml): 99.3 ± 3.2%
Metabolic activity of cells, % ([2]; 16 ng/ml): 104.7 ± 3.2%
Metabolic activity of cells, % ([2]; 31 ng/ml): 99.2 ± 12.5%
Metabolic activity of cells, % ([2]; 62 ng/ml): 97.3 ± 4.1%
Metabolic activity of cells, % ([2]; 0.13 μg/ml): 87.5 ± 6.7%
Metabolic activity of cells, % ([2]; 0.25 μg/ml): 95 ± 1.7%
Metabolic activity of cells, % ([2]; 0.5 μg/ml): 103 ± 2.7%
Metabolic activity of cells, % ([2]; 1 μg/ml): 130 ± 2%
